# Data taken from publication PMC12102759 (Protein Science : A Publication of the Protein Society, 2025).
# Tested on: G3BP1 NFT2
# Format: binding, human
# Conditions: library DMS-BM; bait G3BP1 NFT2; prey CAPRIN1; AQMQGPYNFIQDSM(averaged): mean of the two overlapping peptides over the shared positions
row,Substance,"DMS position-specific score (PSSM value) per amino-acid substitution, averaged"
1,AQMQGPYNFIQDSM(averaged) M14Q (AQMQGPYNFIQDSQ),0.06683
2,AQMQGPYNFIQDSM(averaged) Y7I (AQMQGPINFIQDSM),0.113
3,AQMQGPYNFIQDSM(averaged) Q11R (AQMQGPYNFIRDSM),0.004534
4,AQMQGPYNFIQDSM(averaged) Q2A (AAMQGPYNFIQDSM),0.04422
5,AQMQGPYNFIQDSM(averaged) N8R (AQMQGPYRFIQDSM),0.00733
6,AQMQGPYNFIQDSM(averaged) D12L (AQMQGPYNFIQLSM),0.008174
7,AQMQGPYNFIQDSM(averaged) P6E (AQMQGEYNFIQDSM),0.004474
8,AQMQGPYNFIQDSM(averaged) F9R (AQMQGPYNRIQDSM),0
9,AQMQGPYNFIQDSM(averaged) G5E (AQMQEPYNFIQDSM),0.000605
10,AQMQGPYNFIQDSM(averaged) Q2S (ASMQGPYNFIQDSM),0.004198
11,AQMQGPYNFIQDSM(averaged) G5H (AQMQHPYNFIQDSM),0.006873
12,AQMQGPYNFIQDSM(averaged) Q2W (AWMQGPYNFIQDSM),0.05769
13,AQMQGPYNFIQDSM(averaged) M3V (AQVQGPYNFIQDSM),0.3519
14,AQMQGPYNFIQDSM(averaged) Q4L (AQMLGPYNFIQDSM),0.003961
15,AQMQGPYNFIQDSM(averaged) D12W (AQMQGPYNFIQWSM),0
16,AQMQGPYNFIQDSM(averaged) M14I (AQMQGPYNFIQDSI),0.02696
17,AQMQGPYNFIQDSM(averaged) Q4Q,0.2404
18,AQMQGPYNFIQDSM(averaged) G5L (AQMQLPYNFIQDSM),0.1936
19,AQMQGPYNFIQDSM(averaged) Y7T (AQMQGPTNFIQDSM),0
20,AQMQGPYNFIQDSM(averaged) S13A (AQMQGPYNFIQDAM),0.1575
21,AQMQGPYNFIQDSM(averaged) S13H (AQMQGPYNFIQDHM),0
22,AQMQGPYNFIQDSM(averaged) Y7N (AQMQGPNNFIQDSM),0
23,AQMQGPYNFIQDSM(averaged) P6H (AQMQGHYNFIQDSM),0.008056
24,AQMQGPYNFIQDSM(averaged) Q4S (AQMSGPYNFIQDSM),0.003246
25,AQMQGPYNFIQDSM(averaged) N8Y (AQMQGPYYFIQDSM),0.0098
26,AQMQGPYNFIQDSM(averaged) M3F (AQFQGPYNFIQDSM),0.0581

# Tested on: G3BP1 NFT2
# Format: binding, human
# Conditions: library DMS-CoV; bait G3BP1 NFT2; prey N; peptide APRITFGGPSDSTGSN; listed as aa = residue placed at this position; column sums to 1
Substance,"DMS PSSM value, S (position 10)","DMS PSSM value, A (position 1)","DMS PSSM value, G (position 8)","DMS PSSM value, F (position 6)","DMS PSSM value, T (position 13)","DMS PSSM value, D (position 11)","DMS PSSM value, P (position 2)","DMS PSSM value, T (position 5)","DMS PSSM value, R (position 3)","DMS PSSM value, G (position 14)"
APRITFGGPSDSTGSN S10T (APRITFGGPTDSTGSN),0.01147,–,–,–,–,–,–,–,–,–
APRITFGGPSDSTGSN A1T (TPRITFGGPSDSTGSN),–,0.07786,–,–,–,–,–,–,–,–
APRITFGGPSDSTGSN G8T (APRITFGTPSDSTGSN),–,–,0.001267,–,–,–,–,–,–,–
APRITFGGPSDSTGSN G8M (APRITFGMPSDSTGSN),–,–,0,–,–,–,–,–,–,–
APRITFGGPSDSTGSN F6M (APRITMGGPSDSTGSN),–,–,–,0,–,–,–,–,–,–
APRITFGGPSDSTGSN T13V (APRITFGGPSDSVGSN),–,–,–,–,0.7895,–,–,–,–,–
APRITFGGPSDSTGSN D11W (APRITFGGPSWSTGSN),–,–,–,–,–,0.001161,–,–,–,–
APRITFGGPSDSTGSN P2H (AHRITFGGPSDSTGSN),–,–,–,–,–,–,0,–,–,–
APRITFGGPSDSTGSN T5L (APRILFGGPSDSTGSN),–,–,–,–,–,–,–,0.04693,–,–
APRITFGGPSDSTGSN G8Q (APRITFGQPSDSTGSN),–,–,0,–,–,–,–,–,–,–
APRITFGGPSDSTGSN S10M (APRITFGGPMDSTGSN),0.2077,–,–,–,–,–,–,–,–,–
APRITFGGPSDSTGSN R3L (APLITFGGPSDSTGSN),–,–,–,–,–,–,–,–,0.2826,–
APRITFGGPSDSTGSN G14F (APRITFGGPSDSTFSN),–,–,–,–,–,–,–,–,–,0.04037
APRITFGGPSDSTGSN R3Q (APQITFGGPSDSTGSN),–,–,–,–,–,–,–,–,0.006747,–
APRITFGGPSDSTGSN G14W (APRITFGGPSDSTWSN),–,–,–,–,–,–,–,–,–,0.2634
APRITFGGPSDSTGSN G14K (APRITFGGPSDSTKSN),–,–,–,–,–,–,–,–,–,0.00039
APRITFGGPSDSTGSN D11A (APRITFGGPSASTGSN),–,–,–,–,–,0.0135,–,–,–,–
APRITFGGPSDSTGSN F6I (APRITIGGPSDSTGSN),–,–,–,0,–,–,–,–,–,–
APRITFGGPSDSTGSN G8V (APRITFGVPSDSTGSN),–,–,0.0004532,–,–,–,–,–,–,–
APRITFGGPSDSTGSN D11T (APRITFGGPSTSTGSN),–,–,–,–,–,0.104,–,–,–,–
APRITFGGPSDSTGSN G14P (APRITFGGPSDSTPSN),–,–,–,–,–,–,–,–,–,0.002211
APRITFGGPSDSTGSN A1G (GPRITFGGPSDSTGSN),–,0.004858,–,–,–,–,–,–,–,–
APRITFGGPSDSTGSN G8W (APRITFGWPSDSTGSN),–,–,0,–,–,–,–,–,–,–
APRITFGGPSDSTGSN,0.07098,0.1536,0.05897,0.991,0.03355,0.2538,0.199,0.4961,0.004269,0.009135
APRITFGGPSDSTGSN F6D (APRITDGGPSDSTGSN),–,–,–,0,–,–,–,–,–,–
APRITFGGPSDSTGSN R3A (APAITFGGPSDSTGSN),–,–,–,–,–,–,–,–,0.0016,–

# Same assay, conditions: library DMS-CoV; bait G3BP1 NFT2; prey N; peptide APRITFGGPSDSTGSN; listed as aa = residue placed at this position; column sums to 1
Substance,"DMS PSSM value, I (position 4)","DMS PSSM value, S (position 12)","DMS PSSM value, S (position 15)","DMS PSSM value, G (position 7)","DMS PSSM value, P (position 9)"
APRITFGGPSDSTGSN I4Q (APRQTFGGPSDSTGSN),0,–,–,–,–
APRITFGGPSDSTGSN S12K (APRITFGGPSDKTGSN),–,0,–,–,–
APRITFGGPSDSTGSN S15P (APRITFGGPSDSTGPN),–,–,0.1504,–,–
APRITFGGPSDSTGSN S12G (APRITFGGPSDGTGSN),–,0.0009188,–,–,–
APRITFGGPSDSTGSN,0.9676,0.1222,0.03905,0.9101,0.679

# Same assay, conditions: library DMS-CoV; bait G3BP1 NFT2; prey N; peptide RNAPRITFGGPSDSTG; listed as aa = residue placed at this position; column sums to 1
Substance,"DMS PSSM value, I (position 6)","DMS PSSM value, F (position 8)","DMS PSSM value, G (position 16)","DMS PSSM value, R (position 5)","DMS PSSM value, S (position 12)","DMS PSSM value, N (position 2)","DMS PSSM value, G (position 9)","DMS PSSM value, S (position 14)","DMS PSSM value, D (position 13)","DMS PSSM value, T (position 15)"
RNAPRITFGGPSDSTG I6V (RNAPRVTFGGPSDSTG),0.768,–,–,–,–,–,–,–,–,–
RNAPRITFGGPSDSTG F8P (RNAPRITPGGPSDSTG),–,0,–,–,–,–,–,–,–,–
RNAPRITFGGPSDSTG I6K (RNAPRKTFGGPSDSTG),0,–,–,–,–,–,–,–,–,–
RNAPRITFGGPSDSTG F8R (RNAPRITRGGPSDSTG),–,0,–,–,–,–,–,–,–,–
RNAPRITFGGPSDSTG I6G (RNAPRGTFGGPSDSTG),0,–,–,–,–,–,–,–,–,–
RNAPRITFGGPSDSTG G16P (RNAPRITFGGPSDSTP),–,–,0,–,–,–,–,–,–,–
RNAPRITFGGPSDSTG R5L (RNAPLITFGGPSDSTG),–,–,–,0.01198,–,–,–,–,–,–
RNAPRITFGGPSDSTG G16F (RNAPRITFGGPSDSTF),–,–,0,–,–,–,–,–,–,–
RNAPRITFGGPSDSTG S12Q (RNAPRITFGGPQDSTG),–,–,–,–,0,–,–,–,–,–
RNAPRITFGGPSDSTG N2E (REAPRITFGGPSDSTG),–,–,–,–,–,0.4748,–,–,–,–
RNAPRITFGGPSDSTG G9A (RNAPRITFAGPSDSTG),–,–,–,–,–,–,0,–,–,–
RNAPRITFGGPSDSTG S14L (RNAPRITFGGPSDLTG),–,–,–,–,–,–,–,0,–,–
RNAPRITFGGPSDSTG D13T (RNAPRITFGGPSTSTG),–,–,–,–,–,–,–,–,0,–
RNAPRITFGGPSDSTG R5K (RNAPKITFGGPSDSTG),–,–,–,0.0001577,–,–,–,–,–,–
RNAPRITFGGPSDSTG T15V (RNAPRITFGGPSDSVG),–,–,–,–,–,–,–,–,–,0
RNAPRITFGGPSDSTG S14Q (RNAPRITFGGPSDQTG),–,–,–,–,–,–,–,0,–,–
RNAPRITFGGPSDSTG T15I (RNAPRITFGGPSDSIG),–,–,–,–,–,–,–,–,–,1
RNAPRITFGGPSDSTG F8A (RNAPRITAGGPSDSTG),–,0,–,–,–,–,–,–,–,–
RNAPRITFGGPSDSTG G16Q (RNAPRITFGGPSDSTQ),–,–,0,–,–,–,–,–,–,–
RNAPRITFGGPSDSTG T15M (RNAPRITFGGPSDSMG),–,–,–,–,–,–,–,–,–,0
RNAPRITFGGPSDSTG N2K (RKAPRITFGGPSDSTG),–,–,–,–,–,0,–,–,–,–
RNAPRITFGGPSDSTG D13L (RNAPRITFGGPSLSTG),–,–,–,–,–,–,–,–,0,–
RNAPRITFGGPSDSTG G9M (RNAPRITFMGPSDSTG),–,–,–,–,–,–,0,–,–,–
RNAPRITFGGPSDSTG R5S (RNAPSITFGGPSDSTG),–,–,–,0.002286,–,–,–,–,–,–
RNAPRITFGGPSDSTG F8L (RNAPRITLGGPSDSTG),–,0,–,–,–,–,–,–,–,–

# Same assay, conditions: library DMS-CoV; bait G3BP1 NFT2; prey N; peptide RNAPRITFGGPSDSTG; listed as aa = residue placed at this position; column sums to 1
Substance,"DMS PSSM value, P (position 11)","DMS PSSM value, G (position 10)","DMS PSSM value, P (position 4)","DMS PSSM value, A (position 3)","DMS PSSM value, T (position 7)"
RNAPRITFGGPSDSTG P11S (RNAPRITFGGSSDSTG),0,–,–,–,–
RNAPRITFGGPSDSTG G10H (RNAPRITFGHPSDSTG),–,0,–,–,–
RNAPRITFGGPSDSTG P4N (RNANRITFGGPSDSTG),–,–,0,–,–
RNAPRITFGGPSDSTG P4T (RNATRITFGGPSDSTG),–,–,0,–,–
RNAPRITFGGPSDSTG A3L (RNLPRITFGGPSDSTG),–,–,–,0,–
RNAPRITFGGPSDSTG T7W (RNAPRIWFGGPSDSTG),–,–,–,–,0
RNAPRITFGGPSDSTG G10K (RNAPRITFGKPSDSTG),–,0,–,–,–
